According to patent publication US20190022061A1 (priority 2017, published 2019):

System: Diet-induced obesity (DIO) mice
Experiment: Blood glucose level in DIO mice
Assay type: in vivo, C57BL/6J mice
Experimental: In this study, RAASUS products (KH103, KHJ and KHGD) were dosed three times a day (T ID) for 99 days. […] On day 63 post dosing, OGTT test were conducted for all of the mice. […] On day −5, day 14, day 28 the non-fast blood was collected to determine the non-fast BG, insulin, TG, HDL-C, LDL-C and TCHO level. On day 42, day 56, day 70, day 84 the fast blood was collected to determine the fast BG, insulin, TG, HDL-C, LDL-C and TCHO level.
Male C57BL/6J mice (Shanghai Laboratory Animal Center, Shanghai, China, 5 weeks) were fed with high fat diet (D12492i, Research Diet, New Brunswick, N.J.) (caloric contribution: protein, 20%; fat, 60%; carbohydrates, 20%) ad lib for 21 weeks for the induction of obesity.
The mice of Group 3, Group 4 were orally dosed with KH103, KHJ respectively three times per day at 9:00, 13:00, 17:00 and free drinl<KH103, KHJ respectively at day and night from Day O to Day 99. […]
The random blood glucose, insulin level were measured using tailing nick once per two weeks on day −5, day 14, day 28.
The fast blood glucose (fast from 17:30 to 8:00 AM) insulin level were measured using tailing nick once per two weeks on day 42, day 56, day 70, day 84. […]
Blood Glucose: Blood glucose was determined using the Glucosemeter (Johnson and Johnson) and the Glucose Test Strips (Johnson and Johnson).

SMILES: CC(C)c1c(C(=O)Nc2ccccc2)c(-c2ccccc2)c(-c2ccc(F)cc2)n1CC[C@@H](O)C[C@@H](O)CC(=O)O [Atorvastatin]
- blood glucose level (DIO mice, po three times a day, compared with the vehicle groups, 12 weeks post dose): significantly decrease
- blood sugar level (animal study, diabetics, general statement): lower down
